Active and inactive are the calls of the source. No cut-off for these calls is given here.
Assays:
[1] = target: Baculoviral IAP repeat-containing protein 2/Cyclin-dependent kinase 6 (Homo sapiens, UniProt Q00534+Q13490); assay: Protac activity at CDK6/BIRC2 in human Jurkat cells assessed as induction of CDK6 degradation measured after 24 hrs by capillary electrophoresis; type: cell-based
CDK6/cyclin D3 = CDK6/cyclin D3 (Homo sapiens, UniProt Q00534); assay: Inhibition of human CDK6/cyclin-D3 using RB protein as substrate by [gamma-33P]-ATP assay; type: protein-complex assay
[2] = target: Cyclin-dependent kinase 4/cyclin D1 (Homo sapiens, UniProt P11802); assay: Inhibition of human CDK4/cyclin-D1 using RB protein as substrate by [gamma-33P]-ATP assay; type: protein-complex assay
[3] = target: T1, Baculoviral IAP repeat-containing protein 2/Cyclin-dependent kinase 4 (Homo sapiens, UniProt P11802+Q13490); assay: Protac activity at CDK4/BIRC2 in human Jurkat cells assessed as induction of CDK4 degradation measured after 24 hrs by capillary electrophoresis; type: cell-based
Target sequence in this assay (P11802 whole entry): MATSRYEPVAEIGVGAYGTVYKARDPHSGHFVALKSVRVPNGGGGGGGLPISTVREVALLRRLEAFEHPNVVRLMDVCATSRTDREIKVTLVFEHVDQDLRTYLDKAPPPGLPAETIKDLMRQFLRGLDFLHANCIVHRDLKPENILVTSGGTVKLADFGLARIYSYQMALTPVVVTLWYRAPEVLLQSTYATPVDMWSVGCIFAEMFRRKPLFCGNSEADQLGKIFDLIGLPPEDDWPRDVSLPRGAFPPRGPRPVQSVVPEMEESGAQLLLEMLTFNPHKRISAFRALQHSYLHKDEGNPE
Target sequence in this assay (Q13490 whole entry): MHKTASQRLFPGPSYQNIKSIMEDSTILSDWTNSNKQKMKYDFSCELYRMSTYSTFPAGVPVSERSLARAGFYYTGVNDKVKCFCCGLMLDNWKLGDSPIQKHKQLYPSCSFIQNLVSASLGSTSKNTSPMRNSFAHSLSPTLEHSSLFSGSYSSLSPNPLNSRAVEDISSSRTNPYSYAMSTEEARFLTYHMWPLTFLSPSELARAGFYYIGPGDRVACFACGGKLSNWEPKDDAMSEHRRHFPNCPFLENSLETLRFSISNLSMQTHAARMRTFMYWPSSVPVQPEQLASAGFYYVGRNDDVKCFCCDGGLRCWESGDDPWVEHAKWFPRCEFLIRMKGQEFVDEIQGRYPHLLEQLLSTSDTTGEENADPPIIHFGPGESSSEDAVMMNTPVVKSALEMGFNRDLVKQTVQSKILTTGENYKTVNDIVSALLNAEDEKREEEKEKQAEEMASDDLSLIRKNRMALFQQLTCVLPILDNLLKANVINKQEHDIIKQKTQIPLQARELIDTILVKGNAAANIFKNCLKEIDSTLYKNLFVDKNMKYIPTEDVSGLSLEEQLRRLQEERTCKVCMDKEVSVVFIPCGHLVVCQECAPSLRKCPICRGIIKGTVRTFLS

[4] = target: T1, Baculoviral IAP repeat-containing protein 2/Cyclin-dependent kinase 4; assay: Protac activity at CDK4/BIRC2 in human epoxomicin pretreated Jurkat cells assessed as decrease in CDK4 protein level measured after 5 hrs; type: cell-based
Target sequence in this assay (P11802 2-303 limits assumed): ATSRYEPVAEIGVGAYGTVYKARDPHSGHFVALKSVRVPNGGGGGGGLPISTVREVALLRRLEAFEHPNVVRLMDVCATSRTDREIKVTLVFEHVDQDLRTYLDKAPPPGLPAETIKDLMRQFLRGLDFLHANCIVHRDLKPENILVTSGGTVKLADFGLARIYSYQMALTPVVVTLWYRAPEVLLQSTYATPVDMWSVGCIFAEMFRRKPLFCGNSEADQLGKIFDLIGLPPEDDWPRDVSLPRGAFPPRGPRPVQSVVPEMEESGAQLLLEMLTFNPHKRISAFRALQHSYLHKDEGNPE
Target sequence in this assay (Q13490 whole entry partner): as the sequence (Q13490 whole entry) above

[5] = test system: Baculoviral IAP repeat-containing protein 2/Cyclin-dependent kinase 6 (Homo sapiens); assay: Protac activity at CDK6/BIRC2 in human epoxomicin pretreated Jurkat cells assessed as decrease in CDK6 protein level measured after 5 hrs
[6] = target: T2, von Hippel-Lindau disease tumor suppressor/Cyclin-dependent kinase 4 (Homo sapiens, UniProt P11802+P40337); assay: Protac activity at CDK4/VHL in human epoxomicin pretreated Jurkat cells assessed as decrease in CDK4 protein level measured after 5 hrs; type: cell-based
Target sequence in this assay (P11802 2-303 limits assumed): as the sequence (P11802 2-303 limits assumed) above
Target sequence in this assay (P40337 whole entry partner): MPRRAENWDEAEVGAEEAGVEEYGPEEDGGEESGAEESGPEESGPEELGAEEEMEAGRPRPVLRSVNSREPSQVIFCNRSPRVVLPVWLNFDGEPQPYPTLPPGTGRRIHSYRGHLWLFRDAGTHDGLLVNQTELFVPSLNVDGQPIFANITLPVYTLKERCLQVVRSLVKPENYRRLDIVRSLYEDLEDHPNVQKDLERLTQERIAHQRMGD

[7] = target: T2, von Hippel-Lindau disease tumor suppressor/Cyclin-dependent kinase 4; assay: Protac activity at CDK4/VHL in human Jurkat cells assessed as induction of CDK4 degradation measured after 24 hrs by capillary electrophoresis; type: cell-based
Target sequence in this assay (P11802 whole entry): as the sequence (P11802 whole entry) above
Target sequence in this assay (P40337 whole entry): as the sequence (P40337 whole entry partner) above

[8] = target: von Hippel-Lindau disease tumor suppressor/Cyclin-dependent kinase 6 (Homo sapiens, UniProt Q00534+P40337); assay: Protac activity at CDK6/VHL in human Jurkat cells assessed as induction of CDK6 degradation measured after 24 hrs by capillary electrophoresis; type: cell-based
[9] = test system: von Hippel-Lindau disease tumor suppressor/Cyclin-dependent kinase 4 (Homo sapiens); assay: Protac activity at CDK4/VHL in human epoxomicin pretreated Jurkat cells assessed as decrease in CDK4 protein level measured after 5 hrs
[10] = target: Protein cereblon/Cyclin-dependent kinase 4 (Homo sapiens, UniProt P11802+Q96SW2); assay: Protac activity at CRBN/CDK4 in human Jurkat cells assessed as induction of CDK4 degradation measured after 24 hrs by capillary electrophoresis; type: cell-based
[11] = target: Protein cereblon/Cyclin-dependent kinase 6 (Homo sapiens, UniProt Q00534+Q96SW2); assay: Protac activity at CRBN/CDK6 in human Jurkat cells assessed as induction of CDK6 degradation measured after 24 hrs by capillary electrophoresis; type: cell-based
Chain of Protein cereblon/Cyclin-dependent kinase 6 (Q00534 whole entry): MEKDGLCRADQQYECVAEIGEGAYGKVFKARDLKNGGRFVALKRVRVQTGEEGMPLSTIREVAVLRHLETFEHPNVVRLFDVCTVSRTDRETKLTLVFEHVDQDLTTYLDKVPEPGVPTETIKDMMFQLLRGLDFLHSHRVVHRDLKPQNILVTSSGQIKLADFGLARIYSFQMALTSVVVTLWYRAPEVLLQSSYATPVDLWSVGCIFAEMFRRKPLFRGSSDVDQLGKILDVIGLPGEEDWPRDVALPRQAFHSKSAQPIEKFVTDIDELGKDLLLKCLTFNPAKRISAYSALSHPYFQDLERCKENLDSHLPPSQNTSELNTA
Chain of Protein cereblon/Cyclin-dependent kinase 6 (Q96SW2 whole entry): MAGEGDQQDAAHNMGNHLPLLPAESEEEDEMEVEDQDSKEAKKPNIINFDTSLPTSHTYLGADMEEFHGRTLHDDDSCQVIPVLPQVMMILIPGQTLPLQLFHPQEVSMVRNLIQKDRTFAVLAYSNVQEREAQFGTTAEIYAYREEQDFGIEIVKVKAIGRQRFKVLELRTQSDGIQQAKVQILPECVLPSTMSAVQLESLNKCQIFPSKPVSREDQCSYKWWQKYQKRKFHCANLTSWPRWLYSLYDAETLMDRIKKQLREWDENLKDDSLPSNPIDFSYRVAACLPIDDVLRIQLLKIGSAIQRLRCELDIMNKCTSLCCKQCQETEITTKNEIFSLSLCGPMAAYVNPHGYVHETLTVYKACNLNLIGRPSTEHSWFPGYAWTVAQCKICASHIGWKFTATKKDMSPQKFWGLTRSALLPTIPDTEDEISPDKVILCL

Chain of CDK6/cyclin D3 (P30281 whole entry): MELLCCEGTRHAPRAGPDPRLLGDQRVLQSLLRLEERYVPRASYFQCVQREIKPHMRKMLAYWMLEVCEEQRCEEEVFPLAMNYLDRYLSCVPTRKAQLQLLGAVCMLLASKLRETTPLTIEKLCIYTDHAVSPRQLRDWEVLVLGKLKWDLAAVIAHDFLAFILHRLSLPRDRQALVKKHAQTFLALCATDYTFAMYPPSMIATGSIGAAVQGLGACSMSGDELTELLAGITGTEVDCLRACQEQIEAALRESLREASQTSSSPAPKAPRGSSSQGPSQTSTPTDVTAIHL
Chain of CDK6/cyclin D3 (Q00534 whole entry): as the sequence (Q00534 whole entry) above
Chain of Baculoviral IAP repeat-containing protein 2/Cyclin-dependent kinase 6 (Q00534 whole entry): as above
Chain of Baculoviral IAP repeat-containing protein 2/Cyclin-dependent kinase 6 (Q13490 whole entry): as the sequence (Q13490 whole entry) above
Chain of Cyclin-dependent kinase 4/cyclin D1 (P11802 whole entry): as the sequence (P11802 whole entry) above
Chain of Cyclin-dependent kinase 4/cyclin D1 (P24385 whole entry, further chain): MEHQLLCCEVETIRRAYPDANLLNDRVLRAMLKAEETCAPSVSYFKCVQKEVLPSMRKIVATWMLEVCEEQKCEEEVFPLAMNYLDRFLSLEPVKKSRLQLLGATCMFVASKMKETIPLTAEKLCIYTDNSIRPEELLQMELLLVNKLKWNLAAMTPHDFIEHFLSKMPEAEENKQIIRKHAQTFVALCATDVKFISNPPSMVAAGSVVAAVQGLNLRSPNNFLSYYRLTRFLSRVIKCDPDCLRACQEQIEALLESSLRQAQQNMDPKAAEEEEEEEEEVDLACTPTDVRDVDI
Chain of von Hippel-Lindau disease tumor suppressor/Cyclin-dependent kinase 6 (Q00534 whole entry): as the sequence (Q00534 whole entry) above
Chain of von Hippel-Lindau disease tumor suppressor/Cyclin-dependent kinase 6 (P40337 whole entry): as the sequence (P40337 whole entry partner) above
Chain of Protein cereblon/Cyclin-dependent kinase 4 (P11802 whole entry): as the sequence (P11802 whole entry) above
Chain of Protein cereblon/Cyclin-dependent kinase 4 (Q96SW2 whole entry): as the sequence (Q96SW2 whole entry) above

Compound	pDC50 [1]	IC50 (CDK6/cyclin D3; read-out: pIC50 (converted)) [µM]	IC50 [2] [µM]	pDC50 [3]	also measured
CN[C@@H](C)C(=O)N[C@H](C(=O)N1C[C@@H](NC(=O)CCOCCOCCOCCNC(=O)CN2CCN(c3ccc(Nc4ncc5c(C)c(C(C)=O)c(=O)n(C6CCCC6)c5n4)nc3)CC2)C[C@H]1C(=O)Nc1c(F)cccc1F)C(C)(C)C	5.8	0.0398	0.0158	5.3	–
CC(=O)c1c(C)c2cnc(Nc3ccc(N4CCN(CCCCCCCC(=O)N[C@H](C(=O)N5C[C@H](O)C[C@H]5C(=O)N[C@@H](C)c5ccc(-c6scnc6C)cc5)C(C)(C)C)CC4)cn3)nc2n(C2CCCC2)c1=O	–	–	0.0316	–	Activity [6]: inactive; pDC50 [7]: 7.6; IC50 (CDK6/cyclin D3; read-out: IC50): 0.2 µM; DC50 [8]: 0.004 µM; pDC50 [8]: 8.4; Activity [9]: inactive
CC(=O)c1c(C)c2cnc(Nc3ccc(N4CCN(CCOCCOCCNC(=O)CNc5cccc6c5C(=O)N(C5CCC(=O)NC5=O)C6=O)CC4)cn3)nc2n(C2CCCC2)c1=O (stereo unspecified)	–	0.0158	0.00631	–	pDC50 [10]: 7.3; pDC50 [11]: 8.3

Continued, in another order:

pDC50 [1]	IC50 (CDK6/cyclin D3; read-out: pIC50 (converted)) [µM]	IC50 [2] [µM]	pDC50 [3]	Compound	also measured
7.8	0.0158	0.00631	7.1	CN[C@@H](C)C(=O)N[C@H](C(=O)N1C[C@@H](NC(=O)COCCOCCOCCN2CCN(c3ccc(Nc4ncc5c(C)c(C(C)=O)c(=O)n(C6CCCC6)c5n4)nc3)CC2)C[C@H]1C(=O)Nc1c(F)cccc1F)C(C)(C)C	–
–	–	0.00316	–	CC(=O)c1c(C)c2cnc(Nc3ccc(N4CCN(CCCCNC(=O)CNc5cccc6c5C(=O)N(C5CCC(=O)NC5=O)C6=O)CC4)cn3)nc2n(C2CCCC2)c1=O (stereo unspecified)	–
8.3	0.0126	0.00501	7.7	CN[C@@H](C)C(=O)N[C@H](C(=O)N1C[C@@H](NC(=O)CCCCCCCN2CCN(c3ccc(Nc4ncc5c(C)c(C(C)=O)c(=O)n(C6CCCC6)c5n4)nc3)CC2)C[C@H]1C(=O)Nc1c(F)cccc1F)C(C)(C)C	Activity [4]: inactive; Activity [5]: inactive

Reference: ChEMBL document CHEMBL4627338, “Selective CDK6 degradation mediated by cereblon, VHL, and novel IAP-recruiting PROTACs” (Bioorg Med Chem Lett, 2020)
